Consider one compound from patent US11098021B2, “Phenylsulfonamido-benzofuran derivatives and uses thereof in the treatment of proliferative diseases” (Memorial Sloan-Kettering Cancer Center, priority 2015, dated 2021).

Format in all cases: cell-based
Assay [1] concerns DMS53, SW1417, and H82 cell lines. Nature of the assay: selective apoptotic induction in cell lines addicted to BCL-2, BCL-XL or MCL-1. As to conditions: MCL-1 addicted cancer cell line (H82) over BCL-2 (DMS53) or BCL-XL (SW1417) addicted cancer cell lines; FIG. 2B.
Assay [2] deals with MCL-1-addicted cancer cell-line, H82. Nature of the assay: apoptosis induction in MCL-1-addicted cancer cell line H82. As to conditions: H82 cells.
For assay [3], the system named is MCL-1-addicted cancer cell-line, H23. Nature of the assay: apoptosis induction in MCL-1-addicted cancer cell line H23. Particulars: H23 cells.
[4] abbreviates: 1 µM of compound, FIG. 1B legend.

Structures are written as SMILES.

Turning to `CCOC(=O)c1c(C)oc2cc(Br)c(NS(=O)(=O)c3ccc(OC)cc3)cc12` [Compound 1], the “selectivity of apoptosis induction” value in assay [1] is “selectively induce apoptosis”. For the same compound, the apoptosis induction entry in assay [2] (1 μM of compound, FIG. 1B) is listed as “robust apoptosis”; in assay [2] (setting [4]), “robust apoptosis”; in assay [3] (1 μM of compound, FIG. 1B) it was “robust apoptosis”; in assay [3] (setting [4]), “robust apoptosis”.
